In patent publication US20250277028A1, “TARGETING AGENT” (JIKSAK BIOENGINEERING, INC., priority 2022, published 2025):
Non-standard residues stand in square brackets, D forms with d. Residues, ends and D or L forms follow the SMILES beside them. *: point of attachment. Dolaproine = CO[C@@H]([C@@H]1CCCN1)[C@@H](C)C(=O)O; Dil = CC[C@H](C)[C@H](NC)[C@@H](CC(=O)O)OC; X1 = C[C@@H](N*)[C@@H](O)c1ccccc1; NMeV = CN[C@H](C(=O)O)C(C)C

Test system: human motor neurons
Experiment: Pharmacological effect (axonal amount, Tuj1) of antibody-MMAE conjugate
Type: cell-based
Conditions: t-test, significance level p<0.05
Experimental: Experiments were performed using human motor neurons, for which synaptogenesis was induced using microbeads coated with the extracellular domain of LRRTM2. Culture of cells, preparation of LRRTM2 beads and induction of presynapse were performed as described in Example 1.
As the drug, a microtubule polymerization inhibitor monomethylauristatin E (MMAE: Cat. No. #HY-15575; MedChemExpress) was used. As the anti-SYT2 N-terminal antibody and the normal rabbit antibody for control, antibodies used in Example 1 were used. Conjugate of MMAE and the antibody was prepared using MagicLink™ kit (broadpharm). Preparation of conjugate was performed according to the manufacturer's protocols.
After warming the neuronal medium at 37° C. for 30 minutes, 4-aminopyridine (Sigma Aldrich) was added to the medium to have a final concentration of 100 μM and mixed. In addition, conjugate was added to have a final concentration of 1 μg/mL and mixed. […]
The axonal amount was obtained as the sum of the brightness (=(fluorescence intensity per pixel)×(pixel number)) of Tuj1 signals in the obtained fluorescence images. The relative amount of axon was calculated as the value normalized by the results obtained using the conjugate of the control normal rabbit antibody and MMAE set to 100%. […]

For `CC[C@H](C)[C@@H]([C@@H](CC(=O)N1CCC[C@H]1[C@H](OC)[C@@H](C)C(=O)N[C@H](C)[C@@H](O)c1ccccc1)OC)N(C)C(=O)[C@@H](NC(=O)[C@@H](NC)C(C)C)C(C)C` [MMAE, monomethyl auristatin E] (H-[NMeV]V[Dil][Dolaproine]-X1), the “axonal amount, difference from the control antibody group” value was “no significant differences”.
